Measured values published in patent publication US20250213527A1, “FORMULATIONS OF PSILOCYBIN ANALOGS AND METHODS OF USE” (priority 2021, published 2025).
“Also recorded” adds a separate entry of the source.

Key:
[1] = Stability on standing of amorphous form from DSC melt/crash cooling (XRPD); format: physicochemical; conditions: amorphous free base from melt/crash cooling (>185 °C/30 °C)
[2] = Psilocin-d10 pharmacokinetics in female beagle dogs, oral gavage and intravenous (bolus); conditions: for AUC(0-inf) / AUC(0-t) / C0 / clearance / Cmax / Tmax / Vd / half-life / bioavailability: female, beagle, dog, plasma; for AUC(0-inf): AUC0-inf; for C0: C0, female dog plasma
[3] = Pharmacokinetics in male beagle dogs after oral administration by powder in capsule (PIC) or orally disintegrating tablet (ODT); conditions: dog, plasma, 5 mg
[4] = Plasma pharmacokinetics and bioavailability in rats, oral gavage and intravenous (bolus); conditions: rat plasma, Group 1, IV, psilocin + psilocin-d10 1 + 1 mg/kg; label = analyte; IAD = immediately after dosing
[5] = female dog plasma, single IV bolus 0.20 mg/kg, Mean (N=3)
[6] = female dog plasma, single IV bolus 0.20 mg/kg, Median (N=3)
[7] = female dog plasma, single IV bolus 0.20 mg/kg, animal 60F
[8] = female dog plasma, single IV bolus 0.20 mg/kg, animal 61F
[9] = female dog plasma, single IV bolus 0.20 mg/kg, animal 723F
[10] = female dog plasma, single oral gavage 1.00 mg/kg, Mean (N=3)
[11] = female dog plasma, single oral gavage 1.00 mg/kg, Median (N=3)
[12] = female dog plasma, single oral gavage 1.00 mg/kg, animal 60F
[13] = female dog plasma, single oral gavage 1.00 mg/kg, animal 61F
[14] = female dog plasma, single oral gavage 1.00 mg/kg, animal 723F
[15] = iv, 0.2 mg/kg, female dog plasma, single IV bolus 0.20 mg/kg, Mean (N=3)
[16] = iv, 0.2 mg/kg, female dog plasma, single IV bolus 0.20 mg/kg, animal 61F
[17] = po, 1 mg/kg, female dog plasma, single oral gavage 1.00 mg/kg, Mean (N=3)
[18] = po, 1 mg/kg, female dog plasma, single oral gavage 1.00 mg/kg, Median (N=3)
[19] = po, 1 mg/kg, female dog plasma, single oral gavage 1.00 mg/kg, animal 60F
[20] = po, 1 mg/kg, female dog plasma, single oral gavage 1.00 mg/kg, animal 61F
[21] = po, 1 mg/kg, female dog plasma, single oral gavage 1.00 mg/kg, animal 723F

[2H]C([2H])([2H])N(C([2H])([2H])[2H])C([2H])([2H])C([2H])([2H])c1c[nH]c2cccc(O)c12 [Compound I-3, 3-(2-(bis(methyl-d3)amino)ethyl-1,1,2,2-d4)-1H-indol-4-ol]
stability of amorphous form on standing [1]: crystallized overnight to crystal polymorph pattern 2; also recorded: unstable upon standing | time of last detectable plasma level ([2]; dogs, oral administration): 8 h | time of peak plasma levels ([2]; dogs, oral administration): 0.5 h | DN AUC0-inf [2, 5]: 448 (h*ng/mL)/(mg/kg) | DN Cmax [2, 5]: 229 (ng/mL)/(mg/kg) | DN AUC0-inf [2, 6]: 479 (h*ng/mL)/(mg/kg) | DN Cmax [2, 6]: 230 (ng/mL)/(mg/kg) | DN AUC0-inf [2, 7]: 366 (h*ng/mL)/(mg/kg) | DN Cmax [2, 7]: 230 (ng/mL)/(mg/kg) | DN AUC0-inf [2, 8]: 479 (h*ng/mL)/(mg/kg) | DN Cmax [2, 8]: 220 (ng/mL)/(mg/kg) | DN AUC0-inf [2, 9]: 500 (h*ng/mL)/(mg/kg) | DN Cmax [2, 9]: 239 (ng/mL)/(mg/kg) | DN AUC0-inf [2, 10]: 405 (h*ng/mL)/(mg/kg) | DN Cmax [2, 10]: 146 (ng/mL)/(mg/kg) | DN AUC0-inf [2, 11]: 414 (h*ng/mL)/(mg/kg) | DN Cmax [2, 11]: 132 (ng/mL)/(mg/kg) | DN AUC0-inf [2, 12]: 374 (h*ng/mL)/(mg/kg) | DN Cmax [2, 12]: 132 (ng/mL)/(mg/kg) | DN AUC0-inf [2, 13]: 414 (h*ng/mL)/(mg/kg) | DN Cmax [2, 13]: 179 (ng/mL)/(mg/kg) | DN AUC0-inf [2, 14]: 426 (h*ng/mL)/(mg/kg) | DN Cmax [2, 14]: 126 (ng/mL)/(mg/kg) | AUC(0-inf) [2, 15]: 89.6 ng·h/mL | AUC(0-inf) ([2]; iv, 0.2 mg/kg, female dog plasma, single IV bolus 0.20 mg/kg, Median (N=3)): 95.8 ng·h/mL | AUC(0-inf) ([2]; iv, 0.2 mg/kg, female dog plasma, single IV bolus 0.20 mg/kg, animal 60F): 73.3 ng·h/mL | AUC(0-inf) [2, 16]: 95.8 ng·h/mL | AUC(0-inf) ([2]; iv, 0.2 mg/kg, female dog plasma, single IV bolus 0.20 mg/kg, animal 723F): 99.9 ng·h/mL | AUC(0-t) ([2]; iv, 0.2 mg/kg, AUC0-t, female dog plasma, single IV bolus 0.20 mg/kg, Mean (N=3)): 77.8 ng·h/mL | AUC(0-t) ([2]; iv, 0.2 mg/kg, AUC0-t, female dog plasma, single IV bolus 0.20 mg/kg, Median (N=3)): 80.7 ng·h/mL | AUC(0-t) ([2]; iv, 0.2 mg/kg, AUC0-t, female dog plasma, single IV bolus 0.20 mg/kg, animal 60F): 67 ng·h/mL | AUC(0-t) ([2]; iv, 0.2 mg/kg, AUC0-t, female dog plasma, single IV bolus 0.20 mg/kg, animal 61F): 80.7 ng·h/mL | AUC(0-t) ([2]; iv, 0.2 mg/kg, AUC0-t, female dog plasma, single IV bolus 0.20 mg/kg, animal 723F): 85.8 ng·h/mL | C0 ([2]; iv, 0.2 mg/kg, single IV bolus 0.20 mg/kg, Mean (N=3)): 57.3 ng/mL | C0 ([2]; iv, 0.2 mg/kg, single IV bolus 0.20 mg/kg, Median (N=3)): 62 ng/mL | C0 ([2]; iv, 0.2 mg/kg, single IV bolus 0.20 mg/kg, animal 60F): 69.5 ng/mL | C0 ([2]; iv, 0.2 mg/kg, single IV bolus 0.20 mg/kg, animal 61F): 40.5 ng/mL | C0 ([2]; iv, 0.2 mg/kg, single IV bolus 0.20 mg/kg, animal 723F): 62 ng/mL | clearance ([2]; iv, 0.2 mg/kg, CL, female dog plasma, single IV bolus 0.20 mg/kg, Mean (N=3)): 37.8 mL/min/kg | clearance ([2]; iv, 0.2 mg/kg, CL, female dog plasma, single IV bolus 0.20 mg/kg, animal 60F): 45.5 mL/min/kg | clearance ([2]; iv, 0.2 mg/kg, CL, female dog plasma, single IV bolus 0.20 mg/kg, animal 723F): 33.3 mL/min/kg | clearance ([2]; iv, 0.2 mg/kg, Clearance (CL), dogs): 37.8 mL/min/kg | Cmax ([2]; iv, 0.2 mg/kg, Cmax, female dog plasma, single IV bolus 0.20 mg/kg, Mean (N=3)): 45.8 ng/mL | Cmax ([2]; iv, 0.2 mg/kg, Cmax, female dog plasma, single IV bolus 0.20 mg/kg, Median (N=3)): 45.9 ng/mL | Cmax ([2]; iv, 0.2 mg/kg, Cmax, female dog plasma, single IV bolus 0.20 mg/kg, animal 60F): 45.9 ng/mL | Cmax ([2]; iv, 0.2 mg/kg, Cmax, female dog plasma, single IV bolus 0.20 mg/kg, animal 61F): 43.9 ng/mL | Cmax ([2]; iv, 0.2 mg/kg, Cmax, female dog plasma, single IV bolus 0.20 mg/kg, animal 723F): 47.7 ng/mL | Tmax [2, 15]: 20 min | Tmax [2, 16]: 30 min | Vd ([2]; iv, 0.2 mg/kg, Vss, female dog plasma, single IV bolus 0.20 mg/kg, Mean (N=3)): 4.01 L/kg | Vd ([2]; iv, 0.2 mg/kg, Vss, female dog plasma, single IV bolus 0.20 mg/kg, Median (N=3)): 3.96 L/kg | Vd ([2]; iv, 0.2 mg/kg, Vss, female dog plasma, single IV bolus 0.20 mg/kg, animal 60F): 3.96 L/kg | Vd ([2]; iv, 0.2 mg/kg, Vss, female dog plasma, single IV bolus 0.20 mg/kg, animal 61F): 4.28 L/kg | Vd ([2]; iv, 0.2 mg/kg, Vss, female dog plasma, single IV bolus 0.20 mg/kg, animal 723F): 3.79 L/kg | half-life ([2]; iv, 0.2 mg/kg, elimination half-life, dogs): 81 min | AUC(0-t) ([2]; iv, 0.2 mg/kg, mean AUC0-t, female dog plasma, single intravenous (bolus) dose): 77.8 ng·h/mL | Cmax ([2]; iv, 0.2 mg/kg, mean Cmax, female dog plasma, single intravenous (bolus) dose): 45.8 ng/mL | half-life ([2]; iv, 0.2 mg/kg, t1/2, female dog plasma, single IV bolus 0.20 mg/kg, Mean (N=3)): 82.2 min | half-life ([2]; iv, 0.2 mg/kg, t1/2, female dog plasma, single IV bolus 0.20 mg/kg, Median (N=3)): 84.6 min | half-life ([2]; iv, 0.2 mg/kg, t1/2, female dog plasma, single IV bolus 0.20 mg/kg, animal 60F): 69.6 min | half-life ([2]; iv, 0.2 mg/kg, t1/2, female dog plasma, single IV bolus 0.20 mg/kg, animal 61F): 93 min | half-life ([2]; iv, 0.2 mg/kg, t1/2, female dog plasma, single IV bolus 0.20 mg/kg, animal 723F): 84.6 min | Vd ([2]; iv, 0.2 mg/kg, volume of distribution at steady state (VSS), dogs, intravenous): 4.01 L/kg | AUC(0-inf) [2, 17]: 405 ng·h/mL | AUC(0-inf) [2, 18]: 414 ng·h/mL | AUC(0-inf) [2, 19]: 374 ng·h/mL | AUC(0-inf) [2, 20]: 414 ng·h/mL | AUC(0-inf) [2, 21]: 426 ng·h/mL | AUC(0-t) ([2]; po, 1 mg/kg, AUC0-t, female dog plasma, single oral gavage 1.00 mg/kg, Mean (N=3)): 387 ng·h/mL | AUC(0-t) ([2]; po, 1 mg/kg, AUC0-t, female dog plasma, single oral gavage 1.00 mg/kg, Median (N=3)): 399 ng·h/mL | AUC(0-t) ([2]; po, 1 mg/kg, AUC0-t, female dog plasma, single oral gavage 1.00 mg/kg, animal 61F): 399 ng·h/mL | AUC(0-t) ([2]; po, 1 mg/kg, AUC0-t, female dog plasma, single oral gavage 1.00 mg/kg, animal 723F): 404 ng·h/mL | Cmax ([2]; po, 1 mg/kg, Cmax, female dog plasma, single oral gavage 1.00 mg/kg, Mean (N=3)): 146 ng/mL | Cmax ([2]; po, 1 mg/kg, Cmax, female dog plasma, single oral gavage 1.00 mg/kg, Median (N=3)): 132 ng/mL | Cmax ([2]; po, 1 mg/kg, Cmax, female dog plasma, single oral gavage 1.00 mg/kg, animal 60F): 132 ng/mL | Cmax ([2]; po, 1 mg/kg, Cmax, female dog plasma, single oral gavage 1.00 mg/kg, animal 61F): 179 ng/mL | Cmax ([2]; po, 1 mg/kg, Cmax, female dog plasma, single oral gavage 1.00 mg/kg, animal 723F): 126 ng/mL | bioavailability ([2]; po, 1 mg/kg, F (Bioavailability), female dog plasma, single oral gavage 1.00 mg/kg, Mean (N=3)): 91.3% | bioavailability ([2]; po, 1 mg/kg, F (Bioavailability), female dog plasma, single oral gavage 1.00 mg/kg, Median (N=3)): 186% | bioavailability ([2]; po, 1 mg/kg, F (Bioavailability), female dog plasma, single oral gavage 1.00 mg/kg, animal 60F): 102% | bioavailability ([2]; po, 1 mg/kg, F (Bioavailability), female dog plasma, single oral gavage 1.00 mg/kg, animal 61F): 86.5% | bioavailability ([2]; po, 1 mg/kg, F (Bioavailability), female dog plasma, single oral gavage 1.00 mg/kg, animal 723F): 85.2% | Tmax [2, 17]: 30 min | Tmax [2, 18]: 30 min | Tmax [2, 19]: 30 min | Tmax [2, 20]: 30 min | Tmax [2, 21]: 30 min | half-life ([2]; po, 1 mg/kg, elimination half-life, dogs): 106 min | AUC(0-t) ([2]; po, 1 mg/kg, mean AUC0-t, female dog plasma, single oral (gavage) dose): 387 ng·h/mL | Cmax ([2]; po, 1 mg/kg, mean Cmax, female dog plasma, single oral (gavage) dose): 146 ng/mL | bioavailability ([2]; po, 1 mg/kg, mean oral bioavailability (%F), dogs, oral 1 mg/kg): 91.3% | half-life ([2]; po, 1 mg/kg, t1/2, female dog plasma, single oral gavage 1.00 mg/kg, Mean (N=3)): 106 min | half-life ([2]; po, 1 mg/kg, t1/2, female dog plasma, single oral gavage 1.00 mg/kg, Median (N=3)): 108 min | half-life ([2]; po, 1 mg/kg, t1/2, female dog plasma, single oral gavage 1.00 mg/kg, animal 60F): 109 min | half-life ([2]; po, 1 mg/kg, t1/2, female dog plasma, single oral gavage 1.00 mg/kg, animal 61F): 101 min | half-life ([2]; po, 1 mg/kg, t1/2, female dog plasma, single oral gavage 1.00 mg/kg, animal 723F): 108 min | Tmax [3]: 30 min | Tmax ([3]; oral): 60 min | Tmax [4]: IAD
